For data set [1] the following is noted: human; cited from earlier work.
Data set [2] in a line: Freeze-thaw stability of DBV in plasma samples. As for the experimental part: Stability of DBV was assessed by comparing the nominal concentrations of LQC, MQC and HQC with those observed under two different conditions: • sample extracts kept on board at 10 °C for 24 h and frozen at −80 °C for 24 h; • plasma samples analyzed after three complete freeze and thaw cycles (from −80 °C to 25 °C).
Stability in the above operating conditions was deemed suitable if DBV concentrations were within ±15% of the nominal value.

For data set [3] the following is noted: human, in vivo.
Experimental: Plasma samples (3 μL) were added to 47 μL of ultrapure water to achieve a dilution factor of 17 and then mixed with 150 μL of the IS-methanol solution (1 mg/L DBV-d6). The mixture was vortexed for 15 s and then centrifuged at room temperature at 13,000 rpm for 5 min. Subsequently, 50 µL of the clear supernatant was transferred to an autosampler vial, and a volume of 3 µL was injected into the LC-MS/MS system (Figure 2).
The presented ITD LC-MS/MS method was tested for measuring DBV concentrations in patients receiving DBV for the treatment of long-term subacute or chronic documented Gram-positive infections (namely osteoarticular infections, endocarditis, and endovascular prosthetic infections). In our study, DBV treatment was started according to the internal protocol consisting of two 1500 mg doses one week apart. Requirement for additional doses was assessed by the treating physician after at least four weeks according to the underlying clinical conditions of each patient. […] The number of samples assessed was 520. Samples for Dalbavancin TDM were usually collected at predefined timeframes between 21 and 35 days after first administration. […] Blood samples respected the cold chain delivery and were processed either immediately after delivery or after freezing at −80 °C until analysis, depending on case-by-case.
Data set [4] in a line: Stability of DBV in sample extracts (autosampler, freezer). The class given is physicochemical. The note with it: for Avg Accuracy (Bias%): vs nominal concentration, LC-MS/MS.

For `CN[C@H]1C(=O)N[C@@H]2Cc3ccc(cc3)Oc3cc4cc(c3O[C@@H]3O[C@H](C(=O)O)[C@@H](O)[C@H](O)[C@H]3NC(=O)CCCCCCCCC(C)C)Oc3ccc(cc3Cl)[C@@H](O)[C@@H]3NC(=O)[C@H](NC(=O)[C@@H]4NC(=O)[C@@H](NC2=O)c2cc(cc(O)c2Cl)Oc2cc1ccc2O)c1ccc(O)c(c1)-c1c(O[C@H]2O[C@H](CO)[C@@H](O)[C@H](O)[C@@H]2O)cc(O)cc1[C@@H](C(=O)NCCCN(C)C)NC3=O` [DBV, Dalbavancin], in data set [1], the plasma protein binding result is “very high”. In data set [2], the “change of DBV concentrations after freeze and thaw cycles” value was “decreased”. The “Avg Accuracy (Bias%)” value in data set [2] (human plasma samples, 1 freeze-thaw cycle (−80 °C to 25 °C), Low QC 7 mg/L, vs nominal, LC-MS/MS) was 14.8%; in data set [4] (extract (MeOH:H2O protein precipitation of plasma) kept in autosampler at 10 °C, post 24 h, Low QC 7 mg/L, acceptance ±15%), 22.1%; in data set [4] (extract in freezer (−80 °C) post 24 h, High QC 280 mg/L), 12.3%; in data set [4] (extract in freezer (−80 °C) post 24 h, Low QC 7 mg/L) it was 16.8%; in data set [4] (extract in freezer (−80 °C) post 24 h, Medium QC 70 mg/L), 6.7%; in data set [4] (extract kept in autosampler at 10 °C, post 24 h, High QC 280 mg/L), 14.8%. Also, the “Avg Accuracy (Bias%)” value in data set [4] (extract kept in autosampler at 10 °C, post 24 h, Medium QC 70 mg/L) was 9.4%. Further, in data set [3], the “DBV concentration, first quartile” value was determined as 11 mg/L. In data set [3], the “DBV concentration, maximum” value was 77.0 mg/L. Also, the “DBV concentration, minimum” value in data set [3] was determined as 2.0 mg/L. Moreover, in data set [3], the “DBV concentration, third quartile” value worked out at 31.8 mg/L. The “DBV concentration, median” value in data set [3] (1500 mg) came out at 18 mg/L. Also, the “time for which autosampler extracts were stable” value in data set [4] (extracts kept at 10 °C) was “at least 24 h”.

These data come from PMC9962402, “Fast and Simple Liquid Chromatography-Isotope Dilution Tandem Mass Spectrometry Method for Therapeutic Drug Monitoring of Dalbavancin in Long-Term Treatment of Subacute and/or Chronic Infections” (Pharmaceutics, 2023).
